Where “and” joins values, the source holds several entries; their conditions need not be identical. Identical values can stand only once.
How the values were obtained:
activated AMPK = test: Western immunoblot for activated (phospho-Thr172) AMPK in muscle cells; format: cell-based, mouse; settings: for FOLD AMPK ACTIVATION (OVER CONTROL): cells treated 30 minutes at 37° C
Procedure: (§1) The levels of Glut-4, activated AMPK and activated Akt were measured in mouse muscle cells C2C12 (from ATTC) and in primary culture of human skeletal muscle cells (Clonetics, Inc.) using Western immunoblotting. C2C12 cells were plated at 1.5×1-exp5 cells per mL/well (12-well plate) in standard cell culture medium (DMEM supplemented with 10% fetal bovine serum (FBS), 25 mM glucose, 20 mM Hepes, 4 mM glutamine and 2 mM sodium pyruvate. 48 hrs after the plating, medium was changed to differentiation medium (DMEM supplemented with 5 mM of glucose and 0.5% of FBS) for next 3-4 days to stimulate the formation of myotubes. Three hours before the treatment with selected agents, cells were washed with PBS and transferred to PBS supplemented with 5 mM of glucose.
(§2) Human skeletal muscle cells (HSKM) were cultured in SKBM-2 mediums provided by Clonetics. 48 hrs after cell plating, medium was changed to SKBM medium to stimulate differentiation of the cells to myotubes. When differentiated, the myotubes were transferred to PBS supplemented with 5 mM glucose for three hrs before the treatment.
(§3) Analysis of C2C12 cells for the level of activated AMPK, Akt and the level of GLUT-4 was performed in the same experimental system. The cells were treated for 30 minutes at 37° C. […] Subsequently, 20 μg per sample of sample protein was used for Western analysis using NuPage 10% Bis/Tris gels (Invitrogen). After exposure of membranes to primary and secondary antibodies AMPK, AKT or Glut-4 was detected using ECL-Plus (Amersham) following producer's instruction. Chemilumiscent signals were detected by using ChemiDoc system from Biorad. Intensity of detected signals were analyzed and measured using Quantity One software (Biorad). Alternatively, the level of phosphorylated AMPK was detected using ECL kit from Amersham and short exposure to Kodak films.
(§4) Experimental setup: Cell Culture was followed by treatment with selected contemplated compounds, which was followed by cell lysis and western blot analysis for AMPK, Akt, GLUT4, total AMPK, and total Akt. Signals were acquired accordingly.

GLUT-4 = test: Western immunoblot for GLUT-4 protein level in C2C12 cells; format: cell-based, mouse
Procedure: as §1
Analysis of C2C12 cells for the level of activated AMPK, Akt and the level of GLUT-4 was performed in the same experimental system. The cells were treated for 30 minutes at 37° C. After the treatment, the cells were washed with ice-cold PBS and lysed with 80 μl of lysis buffer/well (M-PER buffer from Pierce supplemented with protease and phosphatase inhibitor mix (Calbiochem) for 10 minutes on ice. Next, the plates were transferred to −20° C. to improve the lysis of the cells. Next cells were sonicated for 5 minutes and lysate was transferred to Eppendorf tubes and centrifuged at 14,000 rpm for 10 minutes. Supernatants were collected in fresh Eppendorf tubes and kept on ice to measure the amount of total proteins. 3 μl of each lysate was used to measure the protein concentration using standard Bradford method (Biorad). Subsequently, 20 μg per sample of sample protein was used for Western analysis using NuPage 10% Bis/Tris gels (Invitrogen). After exposure of membranes to primary and secondary antibodies AMPK, AKT or Glut-4 was detected using ECL-Plus (Amersham) following producer's instruction. Chemilumiscent signals were detected by using ChemiDoc system from Biorad. Intensity of detected signals were analyzed and measured using Quantity One software (Biorad). Alternatively, the level of phosphorylated AMPK was detected using ECL kit from Amersham and short exposure to Kodak films.
Experimental setup: Cell Culture was followed by treatment with selected contemplated compounds, which was followed by cell lysis and western blot analysis for AMPK, Akt, GLUT4, total AMPK, and total Akt. Signals were acquired accordingly. Primary antibodies used in these studies are the following: Anti-phospho-AMPK (Thr172), mouse, rabbit IgG, from Cell Signaling, #2531; Anti-phospho-Akt (Ser473), mouse, rabbit IgG, Cell Signaling, #9271; Anti-Glut-4, mouse, rabbit IgG, Calbiochem, #400064; Anti-AMPK (total), mouse, rabbit IgG, Cell Signaling, #2532; Anti-Akt (total), mouse, rabbit IgG, Cell Signaling, #9272.
The effects of kinetin, N^2-Acetyl-Guanosine and N^2-Acetyl-Guanine on GLUT-4 protein level in C2C12 cells were investigated following the same experimental design as described for AMPK and AKT. Anti-Glut-4 antibody used in this study was from Calbiochem. […] Table 3 refers to multiple independent experiments where multiple identical concentrations for the same reagents are indicated.

activated Akt = test: Western immunoblot for activated (phospho-Ser473) Akt in muscle cells; format: cell-based, mouse; settings: for FOLD AKT ACTIVATION (OVER CONTROL): cells treated 30 minutes at 37° C
Procedure: as §1, §2, §3, §4

[1] = tested on: rat epitrochlearis muscle; test: Glucose uptake in rat epitrochlearis muscle; format: cell-based; set-up: unit not given here; settings: 60 minute incubation at 37 C, 10 minute transport at 30 C; for Glucose uptake, Raw: single values, listed as K
Procedure: Glucose uptake in rat epitrochlearis muscle was determined following a protocol substantially as described by Brozinick, J. T., and Birnbaum, M. J. (1998) J. Biol. Chem. 273(24), […]. Results are listed in Tables 5 and 6, wherein data of Table 5 were obtained for 60 minute incubations (at 37 C), 10 minute transport at (30 C) and data of Table 6 were obtained for 60 minute incubations (at 37 C), 10 minute transport at (30 C) of the compounds as indicated (K is kinetin, AG is N2-acetylguanine).

muscle cells = test: Total glucose uptake in vitro with fluorescent glucose analog; format: cell-based; settings: for AVERAGE (N = 3) fluorescence of fluorescent glucose in the cells / FOLD CHANGE IN TOTAL GLUCOSE UPTAKE (OVER CONTROL): 30 minutes at 37 C
Procedure: Total glucose uptake was measured using fluorescent glucose analog from Molecular Probes. Briefly, muscle cells were treated with kinetin, N^2-Acetyl-Guanosine and N^2-Acetyl-Guanine for 30 minutes at 37 C first and subsequently, these cells were exposed to 500 μM of fluorescent glucose analog for 5 minutes at room temperature. Next, cells were washed twice with cold Krebs-Hepes buffered solution and fixed in 70% ethanol in water. Fluorescence of fluorescent glucose in the cells was measured using fluorescent plate reader at 480/530 nm (excitation/emission). […] Table 4 refers to multiple independent experiments where multiple identical concentrations for the same reagents are indicated.

[2] = concentration 0.15 (unit not given)
[3] = concentration 0.3 (unit not given)
[4] = concentration 0.75 (unit not given)
[5] = concentration 1.5 (unit not given)
[6] = concentration 3.75 (unit not given)
[7] = concentration 7.5 (unit not given)

c1coc(CNc2ncnc3[nH]cnc23)c1 [Kinetin, kinetin] was tested, and the “FOLD AMPK ACTIVATION (OVER CONTROL)” value (activated AMPK; 0.1 microM) was 5.30 fold, the “FOLD AMPK ACTIVATION (OVER CONTROL)” value (activated AMPK; 0.3 microM) was 8.12 fold and the “FOLD AMPK ACTIVATION (OVER CONTROL)” value (activated AMPK; 0.8 microM) was 3.60 fold and 2.40 fold. The “FOLD AMPK ACTIVATION (OVER CONTROL)” value (activated AMPK; 1.0 microM) was 19.50 fold, the “FOLD AMPK ACTIVATION (OVER CONTROL)” value (activated AMPK; 2.0 microM) was 2.70 fold and the “FOLD AMPK ACTIVATION (OVER CONTROL)” value (activated AMPK; 3.0 microM) was 14.50 fold. For the same molecule, the “FOLD AMPK ACTIVATION (OVER CONTROL)” value (activated AMPK; 10.0 microM) was 12.80 fold, the “effect on GLUT-4 protein level (in words)” value (GLUT-4) was “potently increase GLUT-4 protein level” and the “FOLD CHANGE IN GLUT-4 LEVEL (OVER CONTROL)” value (from here on “FOLD CHANGE IN GLUT-4 LEVEL”) (GLUT-4; 0.3 microM) was 3.45 fold and 3.95 fold. For the same molecule, the “FOLD CHANGE IN GLUT-4 LEVEL” value (GLUT-4; 0.8 microM) was 3.46 fold and 2.36 fold, the “FOLD CHANGE IN GLUT-4 LEVEL” value (GLUT-4; 0.9 microM) was 4.00 fold and the “FOLD CHANGE IN GLUT-4 LEVEL” value (GLUT-4; 2.0 microM) was 1.88 fold. The “FOLD CHANGE IN GLUT-4 LEVEL” value (GLUT-4; 2.7 microM) was 3.88 fold, the “FOLD CHANGE IN GLUT-4 LEVEL” value (GLUT-4; 8.1 microM) was 1.11 fold and the “FOLD AKT ACTIVATION (OVER CONTROL)” value (activated Akt; 0.3 microM) was 5.08 fold. The “FOLD AKT ACTIVATION (OVER CONTROL)” value (activated Akt; 0.8 microM) was 3.17 fold, the “FOLD AKT ACTIVATION (OVER CONTROL)” value (activated Akt; 0.9 microM) was 3.81 fold and the “FOLD AKT ACTIVATION (OVER CONTROL)” value (activated Akt; 2.0 microM) was 3.35 fold. For the same molecule, the “FOLD AKT ACTIVATION (OVER CONTROL)” value (activated Akt; 2.7 microM) was 3.21 fold, the “FOLD AKT ACTIVATION (OVER CONTROL)” value (activated Akt; 5.0 microM) was 2.07 fold and the “FOLD AKT ACTIVATION (OVER CONTROL)” value (activated Akt; 8.1 microM) was 0.24 fold. The “Glucose uptake, Mean” value ([1]; 0.5 uM) was 0.99, the “Glucose uptake, Mean” value ([1]; 1 uM (Table 6)) was 1.23 and the “Glucose uptake, Raw” value ([1]; 1 uM (Table 6)) was 1.54 and 0.95 and 1.33 and 1.10 and 1.23. The “Glucose uptake, Mean” value ([1]; 2 uM) was 0.70, the “Glucose uptake, Raw” value ([1]; 2 uM) was 0.57 and 0.90 and 0.64 and 0.81 and the “effect on glucose uptake in muscle cells in vitro (in words)” value (muscle cells) was “potently enhance glucose uptake in muscle cells in vitro”. For the same molecule, the “AVERAGE (N = 3) fluorescence of fluorescent glucose in the cells” value (from here on “AVERAGE (N = 3) fluorescence”) (muscle cells; [2]) was 88.6 +/− 0.9, the “FOLD CHANGE IN TOTAL GLUCOSE UPTAKE (OVER CONTROL)” value (“FOLD CHANGE IN TOTAL GLUCOSE UPTAKE” for short) (muscle cells; [2]) was 1.88 fold and the “AVERAGE (N = 3) fluorescence” value (muscle cells; [3]) was 86.0 +/− 0.7. The “FOLD CHANGE IN TOTAL GLUCOSE UPTAKE” value (muscle cells; [3]) was 2.97 fold, the “AVERAGE (N = 3) fluorescence” value (muscle cells; [4]) was 103.3 +/− 2.1 and the “FOLD CHANGE IN TOTAL GLUCOSE UPTAKE” value (muscle cells; [4]) was 2.19 fold. The “AVERAGE (N = 3) fluorescence” value (muscle cells; [5]) was 110.6 +/− 2.3, the “FOLD CHANGE IN TOTAL GLUCOSE UPTAKE” value (muscle cells; [5]) was 3.82 fold and the “AVERAGE (N = 3) fluorescence” value (muscle cells; [6]) was 102.6 +/− 4.7. For the same molecule, the “FOLD CHANGE IN TOTAL GLUCOSE UPTAKE” value (muscle cells; [6]) was 2.18 fold, the “AVERAGE (N = 3) fluorescence” value (muscle cells; [7]) was 56.6 +/− 1.4 and the “FOLD CHANGE IN TOTAL GLUCOSE UPTAKE” value (muscle cells; [7]) was 1.95 fold.

With CC(=O)Nc1nc2nc[nH]c2c(=O)[nH]1 [N^2-Acetyl-Guanine, N2-acetylguanine] the “FOLD AMPK ACTIVATION (OVER CONTROL)” value (activated AMPK; 0.3 microM) was 5.42 fold, the “FOLD AMPK ACTIVATION (OVER CONTROL)” value (activated AMPK; 1.5 microM) was 5.85 fold and the “FOLD AMPK ACTIVATION (OVER CONTROL)” value (activated AMPK; 7.5 microM) was 6.00 fold. The “FOLD AMPK ACTIVATION (OVER CONTROL)” value (activated AMPK; 37.5 microM) was 6.51 fold, the “effect on AMPK activity (in words)” value (activated AMPK; no concentration stated) was “potent activators of AMPK” and the “effect on GLUT-4 protein level (in words)” value (GLUT-4) was “potently increase GLUT-4 protein level”. For the same molecule, the “FOLD CHANGE IN GLUT-4 LEVEL” value (GLUT-4; 0.3 microM) was 3.94 fold, the “FOLD CHANGE IN GLUT-4 LEVEL” value (GLUT-4; 1.5 microM) was 3.84 fold and the “FOLD CHANGE IN GLUT-4 LEVEL” value (GLUT-4; 7.5 microM) was 3.24 fold. For the same molecule, the “FOLD CHANGE IN GLUT-4 LEVEL” value (GLUT-4; 37.5 microM) was 2.80 fold, the “FOLD AKT ACTIVATION (OVER CONTROL)” value (activated Akt; 0.3 microM) was 3.50 fold and 2.44 fold and the “FOLD AKT ACTIVATION (OVER CONTROL)” value (activated Akt; 7.5 microM) was 2.58 fold and 1.95 fold. For the same molecule, the “effect on Akt activity (in words)” value (activated Akt; no concentration stated) was “potent activators of AMPK as well as Akt”, the “Glucose uptake, Mean” value ([1]; 0.1 uM) was 1.12 and the “Glucose uptake, Mean” value ([1]; 0.4 uM) was 1.43. For the same molecule, the “effect on glucose uptake in muscle cells in vitro (in words)” value (muscle cells) was “potently enhance glucose uptake in muscle cells in vitro”, the “AVERAGE (N = 3) fluorescence” value (muscle cells; [2]) was 86.4 +/− 2.3 and the “FOLD CHANGE IN TOTAL GLUCOSE UPTAKE” value (muscle cells; [2]) was 1.85 fold. The “AVERAGE (N = 3) fluorescence” value (muscle cells; [3]) was 54.5 +/− 1.7, the “FOLD CHANGE IN TOTAL GLUCOSE UPTAKE” value (muscle cells; [3]) was 2.68 fold and the “AVERAGE (N = 3) fluorescence” value (muscle cells; [5]) was 55.2 +/− 0.8. For the same molecule, the “FOLD CHANGE IN TOTAL GLUCOSE UPTAKE” value (muscle cells; [5]) was 2.71 fold, the “AVERAGE (N = 3) fluorescence” value (muscle cells; [6]) was 115.9 +/− 3.7 and the “FOLD CHANGE IN TOTAL GLUCOSE UPTAKE” value (muscle cells; [6]) was 2.48 fold. The “AVERAGE (N = 3) fluorescence” value (muscle cells; [7]) was 59.6 +/− 0.4 and the “FOLD CHANGE IN TOTAL GLUCOSE UPTAKE” value (muscle cells; [7]) was 2.93 fold.
